Columns and labels:
[1] = target: human V1a receptor (Homo sapiens (Human), UniProt P37288); assay: Cellular in vitro assay for determining vasopressin receptor activity (V1a, aequorin luminescence); format: cell-based; conditions: for IC50: CHO cell line transfected with human V1a receptor, [Arg8]-vasopressin at EC50 concentration, read-out: IC50 hV1a; for ratio IC50 hV2/hV1a: selectivity, IC50 hV2 divided by IC50 hV1a
Protocol: (§1) B-1. Cellular In Vitro Assay for Determining Vasopressin Receptor Activity
(§2) The identification of agonists and antagonists of the V1a and V2 vasopressin receptors from humans, rats and dogs as well as the quantification of the activity of the compounds of the invention is carried out using recombinant cell lines. These cell lines originally derive from a hamster's ovary epithelial cell (Chinese Hamster Ovary, CHO K1, ATCC: American Type Culture Collection, Manassas, Va. 20108, USA). The test cell lines constitutively express the human, rat or dog V1a or V2 receptors. In case of the Gαq-coupled V1a receptors, cells are also stably transfected with a modified form of the calcium-sensitive photoproteins aequorin (human and rat V1a) or obe-lin (dog V1a), which, after reconstitution with the cofactor coelenterazine, emit light when there are increases in free calcium concentrations [Rizzuto R, Simpson A W, Brini M, Pozzan T, Nature 358, 325-327 (1992); Illarionov B A, Bondar V S, Illarionova V A, Vysotski E S, Gene 153 (2), 273-274 (1995)]. The resulting vasopressin receptor cells react to stimulation of the recombinantly expressed Via receptors by intracellular release of calcium ions, which can be quantified by the resulting photoprotein luminescence. The Gs-coupled V2 receptors are stably transfected into cell lines expressing the gene for firefly luciferase under control of a CRE-responsible promoter. Activation of V2 receptors induces the activation of the CRE-responsive promoter via cAMP increase, thereby inducing the expression of firefly luciferase. The light emitted by photoproteins of V1a cell lines as well as the light emitted by firefly luciferase of V2 cell lines corresponds to the activation or inhibition of the respective vasopressin receptor. The bioluminescence of the cell lines is detected using a suitable luminometer [Milligan G, Marshall F, Rees S, Trends in Pharmacological Sciences 17, 235-237 (1996)].
Vasopressin V1a Receptor Cell Lines:
On the day before the assay, the cells are plated out in culture medium (DMEM/F12, 2% FCS, 2 mM glutamine, 10 mM HEPES, 5 μg/ml coelenterazine) in 384-well microtiter plates and kept in a cell incubator (96% humidity, 5% v/v CO2, 37° C.). On the day of the assay, test compounds in various concentrations are placed for 10 minutes in the wells of the microtiter plate before the agonist [Arg^8]-vasopressin at EC50 concentration is added. The resulting light signal is measured immediately in a luminometer.
(§3) Table 1A below lists individual IC50 values for the compounds of the invention (including racemic mixtures as well as separated enantiomers) that were obtained from cell lines transfected with the human Via or V2 receptor: […]

[2] = target: human V2 receptor (Homo sapiens (Human), UniProt P30518); assay: Cellular in vitro assay for determining vasopressin receptor activity (V2, CRE-luciferase); format: cell-based; conditions: CHO cell line transfected with human V2 receptor; [Arg8]-vasopressin at EC50 concentration; read-out: IC50 hV2
Protocol: as §1, §2
Vasopressin V2 Receptor Cell Lines:
On the day before the assay, the cells are plated out in culture medium (DMEM/F12, 2% FCS, 2 mM glutamine, 10 mM HEPES) in 384-well microtiter plates and kept in a cell incubator (96% humidity, 5% v/v CO2, 37° C.). On the day of the assay, test compounds in various concentrations and the agonist [Arg^8]-vasopressin at EC50 concentration are added together to the wells, and plates are incubated for 3 hours in a cell incubator. Upon addition of the cell lysis reagent Triton™ and the substrate luciferin, luminescence of firefly luciferase is measured in a luminometer.
as §3

human V2 receptor, sequence (P30518 whole entry): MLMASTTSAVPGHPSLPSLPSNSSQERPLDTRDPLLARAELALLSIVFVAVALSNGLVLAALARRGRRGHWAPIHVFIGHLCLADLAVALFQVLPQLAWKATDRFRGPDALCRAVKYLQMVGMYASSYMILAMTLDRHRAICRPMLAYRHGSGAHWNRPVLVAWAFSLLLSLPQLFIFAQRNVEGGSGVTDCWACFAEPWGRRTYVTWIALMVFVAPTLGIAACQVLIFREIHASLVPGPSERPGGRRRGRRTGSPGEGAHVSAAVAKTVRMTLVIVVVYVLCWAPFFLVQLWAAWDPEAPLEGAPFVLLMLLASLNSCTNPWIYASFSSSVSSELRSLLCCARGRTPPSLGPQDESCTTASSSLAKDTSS
human V1a receptor, sequence (P37288 whole entry): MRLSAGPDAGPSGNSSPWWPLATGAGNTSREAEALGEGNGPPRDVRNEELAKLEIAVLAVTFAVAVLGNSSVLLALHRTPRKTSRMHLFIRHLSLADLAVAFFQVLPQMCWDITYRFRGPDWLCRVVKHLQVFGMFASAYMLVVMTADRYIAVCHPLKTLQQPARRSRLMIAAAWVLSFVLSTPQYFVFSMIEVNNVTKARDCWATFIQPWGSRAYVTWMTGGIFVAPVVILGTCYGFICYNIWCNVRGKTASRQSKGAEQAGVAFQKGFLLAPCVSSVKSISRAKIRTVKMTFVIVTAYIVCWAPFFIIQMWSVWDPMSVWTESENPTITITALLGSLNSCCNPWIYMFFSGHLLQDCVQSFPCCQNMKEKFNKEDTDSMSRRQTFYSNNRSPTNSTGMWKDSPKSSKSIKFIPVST

Structure (SMILES)	IC50 [1]	ratio IC50 hV2/hV1a [1]	IC50 [2]
O=C(NC(Cn1c(-c2ccc(Cl)cc2)nn(Cc2ncn(-c3ncccc3Cl)n2)c1=O)C(F)(F)F)C1COC1 (racemic) [Example 1, N-{3-[3-(4-Chlorophenyl)-1-{[1-(3-chloropyridin-2-yl)-1H-1,2,4-triazol-3-yl]methyl}-5-oxo-1,5-dihydro-4H-1,2,4-triazol-4-yl]-1,1,1-trifluoropropan-2-yl}oxetane-3-carboxamide]	4.9 nM	50.0	245 nM
CC(=O)NC(Cn1c(-c2ccc(Cl)cc2)nn(Cc2ncn(-c3ncccc3Cl)n2)c1=O)C(F)(F)F (racemic) [Example 4, N-{3-[3-(4-Chlorophenyl)-1-{[1-(3-chloropyridin-2-yl)-1H-1,2,4-triazol-3-yl]methyl}-5-oxo-1,5-dihydro-4H-1,2,4-triazol-4-yl]-1,1,1-trifluoropropan-2-yl}acetamide]	55.5 nM	33.3	1850 nM
N#CCC(=O)NC(Cn1c(-c2ccc(Cl)cc2)nn(Cc2ncn(-c3ncccc3Cl)n2)c1=O)C(F)(F)F (racemic) [Example 5, N-{3-[3-(4-Chlorophenyl)-1-{[1-(3-chloropyridin-2-yl)-1H-1,2,4-triazol-3-yl]methyl}-5-oxo-1,5-dihydro-4H-1,2,4-triazol-4-yl]-1,1,1-trifluoropropan-2-yl}-2-cyanoacetamide]	10.6 nM	56.4	595 nM
COCC(=O)NC(Cn1c(-c2ccc(Cl)cc2)nn(Cc2ncn(-c3ncccc3Cl)n2)c1=O)C(F)(F)F (racemic) [Example 6, N-{3-[3-(4-Chlorophenyl)-1-{[1-(3-chloropyridin-2-yl)-1H-1,2,4-triazol-3-yl]methyl}-5-oxo-1,5-dihydro-4H-1,2,4-triazol-4-yl]-1,1,1-trifluoropropan-2-yl}-2-methoxyacetamide]	5.65 nM	111.5	630 nM
O=C(CF)NC(Cn1c(-c2ccc(Cl)cc2)nn(Cc2ncn(-c3ncccc3Cl)n2)c1=O)C(F)(F)F (racemic) [Example 8]	42.5 nM	51.8	2200 nM
CC(F)(F)C(=O)NC(Cn1c(-c2ccc(Cl)cc2)nn(Cc2ncn(-c3ncccc3Cl)n2)c1=O)C(F)(F)F (racemic) [Example 9]	10 nM	66.0	660 nM
O=C(CC(F)(F)F)NC(Cn1c(-c2ccc(Cl)cc2)nn(Cc2ncn(-c3ncccc3Cl)n2)c1=O)C(F)(F)F (racemic) [Example 11, N-{3-[3-(4-Chlorophenyl)-1-{[1-(3-chloropyridin-2-yl)-1H-1,2,4-triazol-3-yl]methyl}-5-oxo-1,5-dihydro-4H-1,2,4-triazol-4-yl]-1,1,1-trifluoropropan-2-yl}-3,3,3-trifluoropropanamide]	1.2 nM	37.9	45.5 nM
CCC(=O)NC(Cn1c(-c2ccc(Cl)cc2)nn(Cc2ncn(-c3ncccc3Cl)n2)c1=O)C(F)(F)F (racemic) [Example 13, N-{3-[3-(4-Chlorophenyl)-1-{[1-(3-chloropyridin-2-yl)-1H-1,2,4-triazol-3-yl]methyl}-5-oxo-1,5-dihydro-4H-1,2,4-triazol-4-yl]-1,1,1-trifluoropropan-2-yl}propanamide]	6.95 nM	37.4	260 nM
O=C(CCC(F)(F)F)NC(Cn1c(-c2ccc(Cl)cc2)nn(Cc2ncn(-c3ncccc3Cl)n2)c1=O)C(F)(F)F (racemic) [Example 33, N-{3-[3-(4-Chlorophenyl)-1-{[1-(3-chloropyridin-2-yl)-1H-1,2,4-triazol-3-yl]methyl}-5-oxo-1,5-dihydro-4H-1,2,4-triazol-4-yl]-1,1,1-trifluoropropan-2-yl}-4,4,4-trifluorobutanamide]		26.1	
O=C(CCC(F)(F)F)NC(Cn1c(-c2ccc(Cl)cc2)nn(Cc2ncn(-c3ncccc3Cl)n2)c1=O)C(F)(F)F (racemic) [Example 34, N-{3-[3-(4-Chlorophenyl)-1-{[1-(3-chloropyridin-2-yl)-1H-1,2,4-triazol-3-yl]methyl}-5-oxo-1,5-dihydro-4H-1,2,4-triazol-4-yl]-1,1,1-trifluoropropan-2-yl}-4,4,4-trifluorobutanamide]		40.9	
O=C(NC(Cn1c(-c2ccc(Cl)cc2)nn(Cc2ncn(-c3ncccc3Cl)n2)c1=O)C(F)(F)F)C1CS(=O)(=O)C1 (racemic) [Example 39, N-{3-[3-(4-Chlorophenyl)-1-{[1-(3-chloropyridin-2-yl)-1H-1,2,4-triazol-3-yl]methyl}-5-oxo-1,5-dihydro-4H-1,2,4-triazol-4-yl]-1,1,1-trifluoropropan-2-yl}thietane-3-carboxamide 1,1-dioxide]		110.9	
O=C(NC(Cn1c(-c2ccc(Cl)cc2)nn(Cc2ncn(-c3ncccc3Cl)n2)c1=O)C(F)(F)F)C1CS(=O)(=O)C1 (racemic) [Example 40, N-{3-[3-(4-Chlorophenyl)-1-{[1-(3-chloropyridin-2-yl)-1H-1,2,4-triazol-3-yl]methyl}-5-oxo-1,5-dihydro-4H-1,2,4-triazol-4-yl]-1,1,1-trifluoropropan-2-yl}thietane-3-carboxamide 1,1-dioxide]		26.7	
CS(=O)(=O)CC(=O)NC(Cn1c(-c2ccc(Cl)cc2)nn(Cc2ncn(-c3ncccc3Cl)n2)c1=O)C(F)(F)F (racemic) [Example 45, N-{3-[3-(4-Chlorophenyl)-1-{[1-(3-chloropyridin-2-yl)-1H-1,2,4-triazol-3-yl]methyl}-5-oxo-1,5-dihydro-4H-1,2,4-triazol-4-yl]-1,1,1-trifluoropropan-2-yl}-2-(methylsulfonyl)acetamide]		9.8	
CS(=O)(=O)CC(=O)NC(Cn1c(-c2ccc(Cl)cc2)nn(Cc2ncn(-c3ncccc3Cl)n2)c1=O)C(F)(F)F (racemic) [Example 46, N-{3-[3-(4-Chlorophenyl)-1-{[1-(3-chloropyridin-2-yl)-1H-1,2,4-triazol-3-yl]methyl}-5-oxo-1,5-dihydro-4H-1,2,4-triazol-4-yl]-1,1,1-trifluoropropan-2-yl}-2-(methylsulfonyl)acetamide]		42.8	
O=C(NC(Cn1c(-c2ccc(Cl)cc2)nn(Cc2ncn(-c3ncccc3Cl)n2)c1=O)C(F)(F)F)[C@@H]1C[C@H](F)CN1 (stereo in doubt) [Example 48, N-{3-[3-(4-Chlorophenyl)-1-{[1-(3-chloropyridin-2-yl)-1H-1,2,4-triazol-3-yl]methyl}-5-oxo-1,5-dihydro-4H-1,2,4-triazol-4-yl]-1,1,1-trifluoropropan-2-yl}-4-fluoro-prolinamide]		56.5	
O=C(NC(Cn1c(-c2ccc(Cl)cc2)nn(Cc2ncn(-c3ncccc3Cl)n2)c1=O)C(F)(F)F)[C@@H]1C[C@@H](F)CN1 (stereo in doubt) [Example 49, N-{3-[3-(4-Chlorophenyl)-1-{[1-(3-chloropyridin-2-yl)-1H-1,2,4-triazol-3-yl]methyl}-5-oxo-1,5-dihydro-4H-1,2,4-triazol-4-yl]-1,1,1-trifluoropropan-2-yl}-4-fluoro-prolinamide]		112.7	
O=C(NC(Cn1c(-c2ccc(Cl)cc2)nn(Cc2ncn(-c3ncccc3Cl)n2)c1=O)C(F)(F)F)C1(C(F)(F)F)CC1 (stereo not drawn) [Example 42, N-{3-[3-(4-Chlorophenyl)-1-{[1-(3-chloropyridin-2-yl)-1H-1,2,4-triazol-3-yl]methyl}-5-oxo-1,5-dihydro-4H-1,2,4-triazol-4-yl]-1,1,1-trifluoropropan-2-yl}-1-(trifluoromethyl)cyclopropane-carboxamide]		9.0	

Source: US11149023B2, “Substituted triazole derivatives and uses thereof” (Bayer Pharma Aktiengesellschaft, priority 2017, dated 2021)
